This note sets out measurements from patent US6900233B2, “Substituted 3-phenyl-5-alkoxy-3H-(1,3,4)-oxadiazol-2-ones, pharmaceutical composition and method for treating obesity thereof” (Aventis Pharma Deutschland GmbH, priority 2002, dated 2005).

pIC50: −log10 of the molar value.

The target in one data set is T1, pancreatic lipase (PL) (Sus scrofa, UniProt P00591).
T1 construct: Enriched preparation from porcine pancreas; purchased Sigma L-0382; host or cells: porcine pancreas (tissue preparation)
T1 sequence (P00591 1-450): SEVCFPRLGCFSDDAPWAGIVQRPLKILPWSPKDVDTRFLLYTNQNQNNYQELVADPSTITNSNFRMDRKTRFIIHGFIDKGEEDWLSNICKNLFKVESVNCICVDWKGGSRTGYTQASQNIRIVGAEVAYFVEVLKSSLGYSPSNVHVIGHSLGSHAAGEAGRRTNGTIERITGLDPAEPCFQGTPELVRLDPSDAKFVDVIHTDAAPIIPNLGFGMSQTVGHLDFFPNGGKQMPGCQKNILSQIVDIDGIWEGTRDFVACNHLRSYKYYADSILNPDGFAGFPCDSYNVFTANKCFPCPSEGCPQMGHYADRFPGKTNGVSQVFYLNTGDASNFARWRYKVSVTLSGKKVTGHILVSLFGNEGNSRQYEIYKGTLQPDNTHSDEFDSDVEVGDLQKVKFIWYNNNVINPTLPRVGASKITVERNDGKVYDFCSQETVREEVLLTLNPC
In words: Pancreatic lipase enzyme assay (release of radiolabeled oleate from tripalmitin/glycerol tri[3H]oleate substrate). It counts as biochemical. Particulars: enriched preparation from porcine pancreas, 30° C., 30 min, up to 8 concentrations. The procedure:
The effect of the compounds according to the invention of formula 1 was tested using the following enzyme assay system: [lacuna]
The activity of the compounds was assayed as follows:
1. Preparation of the Substrate:
80 μL of tripalmitin (85 mM in chloroform) are mixed with 5 μL of glycerol tri[9,10(n)-^3H]oleate (5 mCi/mL in toluene) in a 12 mL polypropylene vessel. Evaporation in a rotary evaporator (50° C.) and addition of 4 mL of 200 mM Tris/HCl (pH 7.6), 0.8% TX-100 are followed by ultrasound treatment of the mixture (Branson B-12 sonifier, output level 4, 3×2 min with 1 min intervals on ice) until a homogeneous milky suspension is produced.
Lipase buffer: 80 mM Tris/HCl (pH 7.6), 600 mM NaCl, 8 mM CaCl2, 8 mM benzamidine, 2 mM Pefabloc (Roche Biochemicals) (add the inhibitors only on the day of the assay)
Pancreatic lipase: Enriched preparation from porcine pancreas (Sigma order No. L-0382) dissolved in lipase buffer (100 000 units/500 μL)
5 μL of test substance (in 100% DMSO) or DMSO (control) are mixed with 10 μL of substrate and 5 μL of lipase (in this sequence) and incubated at 30° C. (Eppendorf Thermomixer, 350 min^−1) for 30 min. After addition of 325 μL of methanol/chloroform/n-heptane (10/9/7) and 105 μl of 0.1 M K2CO3, 0.1 M H3BO3 (pH 10.5 adjusted with 1 M KOH) and vigorous mixing, the phases are separated by centrifugation (8000 rpm, Eppendorf centrifuge, 4° C.). 140 μL portions of the aqueous supernatant (contains the liberated radiolabeled oleate; 70% recovery) are transferred into 20 mL scintillation vials and mixed with 6 mL of scintillation cocktail (Beckman ReadySafe). After vigorously mixing and incubating at room temperature for 2 h, the radioactivity is measured in a liquid scintillation counter (Beckman, L8008, tritium channel with quench curve, measurement time 20 min).
Substances are routinely tested in each concentration in three independent incubation mixtures each with duplicate determination after phase separation (SD<0.02). Background values (reaction under the same conditions but without lipase) are subtracted from all values (corresponds predominantly to the content of glycerol trioleate or free oleate in the substrate preparation in the aqueous phase, <5% of the radioactivity employed). The inhibition of the pancreatic lipase enzymatic activity by a test substance is determined by comparison with an uninhibited control reaction (presence of lipase=0% inhibition; absence of lipase 100% inhibition in each case after background correction). The IC50 is calculated from an inhibition plot with up to 8 concentrations of the test substance. The software package GRAPHIT (Elsevier-BIOSOFT) is used for curve fitting and IC50 determination.

`CC(C)CCC[C@@H](C)[C@H]1CC[C@H]2[C@@H]3CCC4C[C@@H](Oc5nn(-c6ccc(OC(F)(F)F)cc6)c(=O)o5)CC[C@]4(C)[C@H]3CC[C@]12C` (some centres unmarked) gave a melting point of 127 °C. Regarding `CCCCCCCCCCCCOc1nn(-c2ccc(OC(F)(F)F)cc2)c(=O)o1` [Example 1, 5-Dodecyloxy-3-(4-trifluoromethoxy-phenyl)-3H-(1,3,4)-oxadiazol-2-one], the negative-log IC50 (pIC50) on pancreatic lipase (PL) is 7.52. The molecule `CCCCCCCCCCCCCCCCOc1nn(-c2ccc(OC(F)(F)F)cc2)c(=O)o1` [Example 2, 5-Hexadecyloxy-3-(4-trifluoromethoxy-phenyl)-3H-(1,3,4)-oxadiazol-2-one] gave a melting point of 56 °C. Besides, the negative logarithm of the IC50 (pIC50) at pancreatic lipase (PL) was 6.60.

On pancreatic lipase (PL), `CCCCCCCCOc1nn(-c2ccc(OC(F)(F)F)cc2)c(=O)o1` [Example 3, 5-Octyloxy-3-(4-trifluoromethoxy-phenyl)-3H-(1,3,4)-oxadiazol-2-one] gave a negative-log IC50 (pIC50) of 6.46. `CCCCCCCCCCCCCCCCOc1nn(-c2cccc(OC(F)(F)F)c2)c(=O)o1` [Example 4, 5-Hexadecyloxy-3-(3-trifluoromethoxy-phenyl)-3H-(1,3,4)-oxadiazol-2-one]: the melting point was determined as 53 °C. In addition, the pIC50 against pancreatic lipase (PL) is 5.60. For `CCCCCCCCCCCCCCCCOc1nn(-c2ccc(Oc3ccc(Cl)cc3)cc2)c(=O)o1` [Example 5, 5-Hexadecyloxy-3-(4-(4-chlorophenoxy)-phenyl)-3H-(1,3,4)-oxadiazol-2-one], the melting point came to 52 °C. At pancreatic lipase (PL), this molecule showed a pIC50 of 5.70. The like results for `CCCCCCCCOc1nn(-c2ccccc2)c(=O)o1` [Example 6, 5-Octyloxy-3-phenyl-3H-(1,3,4)-oxadiazol-2-one] were, in that order, 38 °C and 6.05. For `CCCCCCCCCCCCCCCCOc1nn(-c2cccc(F)c2)c(=O)o1` [Example 8, 5-Hexadecyloxy-3-(3-fluoro-phenyl)-3H-(1,3,4)-oxadiazol-2-one], the melting point was 58 °C.

`CCCCCCCCCCCCCCCCOc1nn(-c2cccc(OCc3ccccc3)c2)c(=O)o1` [Example 9, 5-Hexadecyloxy-3-(3-benzyloxy-phenyl)-3H-(1,3,4)-oxadiazol-2-one] came in with a melting point of 65 °C. Turning to `CCCCCCCCCCCCCCCCOc1nn(-c2ccccc2)c(=O)o1` [Example 10, 5-Hexadecyloxy-3-phenyl-3H-(1,3,4)-oxadiazol-2-one], the melting point stood at 63 °C. Take `CCCCCCCCCCCCCCCCOc1nn(-c2ccc([N+](=O)[O-])cc2)c(=O)o1` [Example 11, 5-Hexadecyloxy-3-(4-nitro-phenyl)-3H-(1,3,4)-oxadiazol-2-one]: the melting point came out at 72 °C.

In the case of `CCCCCCCCCCCCCCCCOc1nn(-c2ccc(OC)cc2)c(=O)o1` [Example 12, 5-Hexadecyloxy-3-(4-methoxy-phenyl)-3H-(1,3,4)-oxadiazol-2-one], the melting point was 66 °C. For `CCCCCCCCCCCCCCCCOc1nn(-c2ccc(OCc3ccccc3)cc2)c(=O)o1` [Example 13, 5-Hexadecyloxy-3-(4-benzyloxy-phenyl)-3H-(1,3,4)-oxadiazol-2-one], the melting point is 73 °C. Turning to `CCCCCCCCCCCOc1nn(-c2ccc(OC(F)(F)F)cc2)c(=O)o1` [Example 15, 5-Undecyloxy-3-(4-trifluoromethoxy-phenyl)-3H-(1,3,4)-oxadiazol-2-one], the melting point came to 38 °C. At pancreatic lipase (PL), this molecule showed a negative logarithm of the IC50 (pIC50) of 6.22. As to `CCCCCCCCCCCCCCOc1nn(-c2ccc(OC(F)(F)F)cc2)c(=O)o1` [Example 16, 5-Tetradecyloxy-3-(4-trifluoromethoxy-phenyl)-3H-(1,3,4)-oxadiazol-2-one], the melting point was found to be 46 °C. On the same count and under the same terms, with `CCCCCCCCCCCCCOc1nn(-c2ccc(OC(F)(F)F)cc2)c(=O)o1` [Example 17, 5-Tridecyloxy-3-(4-trifluoromethoxy-phenyl)-3H-(1,3,4)-oxadiazol-2-one] the figure was 50 °C; with `O=c1oc(OCCc2ccc(F)cc2)nn1-c1ccc(OC(F)(F)F)cc1` [Example 21, 5-(2-(4-Fluorophenyl)-ethoxy)-3-(4-trifluoromethoxy-phenyl)-3H-(1,3,4)-oxadiazol-2-one], 60 °C.

In the case of `CCCCCCCCCCCCCCCCCCCCCCOCCOc1nn(-c2ccc(OC(F)(F)F)cc2)c(=O)o1` [Example 25, 5-(Docosyloxy-ethoxy)-3-(4-trifluoromethoxy-phenyl)-3H-(1,3,4)-oxadiazol-2-one], the melting point came out at 71 °C. Same read-out and setting: with `CCCCCCCCCCCCOc1nn(-c2ccc(OC(F)(F)F)cc2)c(=O)o1` [Example 29, 5-(Dodecyloxy)-3-(4-trifluoromethoxy-phenyl)-3H-(1,3,4)-oxadiazol-2-one] the figure was 41 °C; with `CCCCCCCCCCCCOc1nn(-c2ccc(Cl)c(Cl)c2)c(=O)o1` [Example 30, 5-(Dodecyloxy)-3-(3,4-dichloro-phenyl)-3H-(1,3,4)-oxadiazol-2-one], 74 °C; with `CCCCCCCCCCCCOc1nn(-c2cc(Cl)cc(Cl)c2)c(=O)o1` [Example 31, 5-(Dodecyloxy)-3-(3,5-dichloro-phenyl)-3H-(1,3,4)-oxadiazol-2-one], 48 °C. As for `CCCCCCCCCCCCOc1nn(-c2cccc(OC)c2)c(=O)o1` [Example 32, 5-(Dodecyloxy)-3-(3-methoxy-phenyl)-3H-(1,3,4)-oxadiazol-2-one], the melting point was 51 °C. Turning to `CCCCCCCCCCCCOc1nn(-c2ccc(OC)cc2)c(=O)o1` [Example 33, 5-(Dodecyloxy)-3-(4-methoxy-phenyl)-3H-(1,3,4)-oxadiazol-2-one], the melting point was determined as 57 °C. Regarding `CCCCCCCCCCCCOc1nn(-c2cccc([N+](=O)[O-])c2)c(=O)o1` [Example 34, 5-(Dodecyloxy)-3-(3-nitro-phenyl)-3H-(1,3,4)-oxadiazol-2-one], the melting point is 64 °C. The same measure, in the same setting: with `CCCCCCCCCCCCOc1nn(-c2cccc(C(F)(F)F)c2)c(=O)o1` [Example 35, 5-(Dodecyloxy)-3-(3-trifluoromethyl-phenyl)-3H-(1,3,4)-oxadiazol-2-one] the figure was 43 °C; with `CCCCCCCCCCCCOc1nn(-c2ccc(OCc3ccccc3)cc2)c(=O)o1` [Example 37, 5-(Dodecyloxy)-3-(4-benzyloxy-phenyl)-3H-(1,3,4)-oxadiazol-2-one], 65 °C. Still for that read-out and setting: for `CCCCCCCCCCCCOc1nn(-c2cccc(F)c2)c(=O)o1` [Example 38, 5-(Dodecyloxy)-3-(3-fluoro-phenyl)-3H-(1,3,4)-oxadiazol-2-one] the value was 44 °C; for `CCCCCCCCCCCCOc1nn(-c2ccc([N+](=O)[O-])c(OCc3ccc(F)cc3)c2)c(=O)o1` [Example 39, 5-(Dodecyloxy)-3-(3-(4-fluorobenzyloxy)-4-nitro-phenyl)-3H-(1,3,4)-oxadiazol-2-one], 71 °C. In turn, `CCCCCCCCCCCCOc1nn(-c2ccc([N+](=O)[O-])cc2C)c(=O)o1` [Example 40, 5-(Dodecyloxy)-3-(2-methyl-4-nitro-phenyl)-3H-(1,3,4)-oxadiazol-2-one] registered a melting point of 63 °C. Same read-out and setting: with `CCCCCCCCCCCCOc1nn(-c2ccc([N+](=O)[O-])c(C)c2)c(=O)o1` [Example 41, 5-(Dodecyloxy)-3-(3-methyl-4-nitro-phenyl)-3H-(1,3,4)-oxadiazol-2-one] the figure was 62 °C.

Broadly, the melting point is the temperature, or range, at which the solid turns liquid. What is called pIC50 is the negative decadic logarithm of the IC50, by convention in mol/L. Lower therefore signals a large IC50.
